Reference: EP0137689B1, “GRF analogs” (THE SALK INSTITUTE FOR BIOLOGICAL STUDIES, priority 1983, dated 1986)

Test system: cells of rat pituitary glands
Assay: in vitro growth hormone release assay in rat pituitary cell cultures (ir GH measured by radioimmunoassay)
Assay type: cell-based
Settings: for intrinsic biological activity / potency: in equimolar ratios, side-by-side comparison with synthetic hGRF(1-44)-NH2, incubation 3 to 4 hours, GH release; for intrinsic activity / specific activity: multiple doses factorial design experiments; for intrinsic activity: compared with hGRF(1-44)-NH2; for specific activity: relative to hGRF(1-44)-NH2
Experimental: To determine the effectiveness of the peptide to promote the release of growth hormone, in vitro assays are carried out using synthetic hGRF(1-44)-NH2 in side-by-side comparison with pGRF(1-44)-NH2 and of a GRF Reference Standard having a known effectiveness to promote the release of growth hormone from pituitary cells. The GRF Reference standard is described and defined in Brazeau, et al., Endocrinology, Vol. 110 A538 (1982) and is an amount of a preparation of rat hypothalamic origin that produces a half- maximal response in terms of GH release in a pituitary cell monolayer bioassay. Cultures are used which include cells of rat pituitary glands removed some four to five days previously. Both cultures of a defined standard medium and cultures which are considered optimal for the secretion of growth hormone are used for the comparative testing, in the general manner described in Brazeau, et al. Regulatory Peptides, 1, 255, 1981. Incubation with the substance to be tested is carried out for 3 to 4 hours, and aliquots of the culture medium are removed and processed to measure their contents in inmunoreactive GH(ir GH) by a well- characterized radioimmunoassay.
To determine the effectiveness of the peptide to promote the release of growth hormone, in vito assays are carried out using synthetic hGRF(1―44)-NH2 in side-by-side comparison with equimolar concentrations of bGRF(1―44)-NH2, as set forth hereinbefore in Example II.
To determine the effectiveness of the peptide to promote the release of growth hormone, in vitro assays are carried out using synthetic hGRF(1―44)-NH2 in side-by-side comparison with equimolar concentrations of the synthetic oGRF(1-44)-NH2 of Example V as set forth hereinbefore in Example II.

CC[C@H](C)[C@H](NC(=O)[C@H](C)NC(=O)[C@H](CC(=O)O)NC(=O)[C@H](C)NC(=O)[C@@H](N)Cc1ccc(O)cc1)C(=O)N[C@@H](Cc1ccccc1)C(=O)N[C@H](C(=O)N[C@@H](CC(N)=O)C(=O)N[C@@H](CO)C(=O)N[C@@H](Cc1ccc(O)cc1)C(=O)N[C@@H](CCCNC(=N)N)C(=O)N[C@@H](CCCCN)C(=O)N[C@H](C(=O)N[C@@H](CC(C)C)C(=O)NCC(=O)N[C@@H](CCC(N)=O)C(=O)N[C@@H](CC(C)C)C(=O)N[C@@H](CO)C(=O)N[C@@H](C)C(=O)N[C@@H](CCCNC(=N)N)C(=O)N[C@@H](CCCCN)C(=O)N[C@@H](CC(C)C)C(=O)N[C@@H](CC(C)C)C(=O)N[C@@H](CCC(N)=O)C(=O)N[C@@H](CC(=O)O)C(=O)N[C@H](C(=O)N[C@@H](CCSC)C(=O)N[C@@H](CC(N)=O)C(=O)N[C@@H](CCCNC(=N)N)C(=O)N[C@@H](CCC(N)=O)C(=O)N[C@@H](CCC(N)=O)C(=O)NCC(=O)N[C@@H](CCC(=O)O)C(=O)N[C@@H](CCCNC(=N)N)C(=O)N[C@@H](CC(N)=O)C(=O)N[C@@H](CCC(N)=O)C(=O)N[C@@H](CCC(=O)O)C(=O)N[C@@H](CCC(N)=O)C(=O)NCC(=O)N[C@@H](C)C(=O)N[C@@H](CCCCN)C(=O)N[C@H](C(=O)N[C@@H](CCCNC(=N)N)C(=O)N[C@@H](CC(C)C)C(N)=O)C(C)C)[C@@H](C)CC)C(C)C)[C@@H](C)O [bGRF(1-44)-NH2]
intrinsic biological activity: full intrinsic biological activity | potency: close to the same potency | intrinsic activity: same intrinsic activity | specific activity: about 70 % of hGRF(1-44)-NH2

CC[C@H](C)[C@H](NC(=O)[C@H](C)NC(=O)[C@H](CC(=O)O)NC(=O)[C@H](C)NC(=O)[C@@H](N)Cc1ccc(O)cc1)C(=O)N[C@@H](Cc1ccccc1)C(=O)N[C@H](C(=O)N[C@@H](CC(N)=O)C(=O)N[C@@H](CO)C(=O)N[C@@H](Cc1ccc(O)cc1)C(=O)N[C@@H](CCCNC(=N)N)C(=O)N[C@@H](CCCCN)C(=O)N[C@H](C(=O)N[C@@H](CC(C)C)C(=O)NCC(=O)N[C@@H](CCC(N)=O)C(=O)N[C@@H](CC(C)C)C(=O)N[C@@H](CO)C(=O)N[C@@H](C)C(=O)N[C@@H](CCCNC(=N)N)C(=O)N[C@@H](CCCCN)C(=O)N[C@@H](CC(C)C)C(=O)N[C@@H](CC(C)C)C(=O)N[C@@H](CCC(N)=O)C(=O)N[C@@H](CC(=O)O)C(=O)N[C@H](C(=O)N[C@@H](CCSC)C(=O)N[C@@H](CC(N)=O)C(=O)N[C@@H](CCCNC(=N)N)C(=O)N[C@@H](CCC(N)=O)C(=O)N[C@@H](CCC(N)=O)C(=O)NCC(=O)N[C@@H](CCC(=O)O)C(=O)N[C@@H](CCCNC(=N)N)C(=O)N[C@@H](CC(N)=O)C(=O)N[C@@H](CCC(N)=O)C(=O)N[C@@H](CCC(=O)O)C(=O)N[C@@H](CCC(N)=O)C(=O)NCC(=O)N[C@@H](C)C(=O)N[C@@H](CCCCN)C(=O)N[C@H](C(=O)N[C@@H](CCCNC(=N)N)C(=O)N[C@@H](CC(C)C)C(N)=O)C(C)C)[C@@H](C)CC)[C@@H](C)CC)[C@@H](C)O [oGRF(1-44), H-Tyr-Ala-Asp-Ala-lle-Phe-Thr-Asn-Ser-Tyr-Arg-Lys-lle-Leu-Gly-Gln-Leu-Ser-Ala-Arg-Lys-Leu-Leu-Gln-Asp- lle-Met-Asn-Arg-Gln-Gln-Gly-Glu-Arg-Asn-Gln-Glu-Gln-Gly-Ala-Lys-Val-Arg-Leu-NH2]
intrinsic biological activity: full intrinsic biological activity | potency: close to the same potency | intrinsic activity: about the same intrinsic activity | specific activity: about 70 % of hGRF(1-44)-NH2

CC[C@H](C)[C@H](NC(=O)[C@H](C)NC(=O)[C@H](CC(=O)O)NC(=O)[C@H](C)NC(=O)[C@@H](N)Cc1ccc(O)cc1)C(=O)N[C@@H](Cc1ccccc1)C(=O)N[C@H](C(=O)N[C@@H](CC(N)=O)C(=O)N[C@@H](CO)C(=O)N[C@@H](Cc1ccc(O)cc1)C(=O)N[C@@H](CCCNC(=N)N)C(=O)N[C@@H](CCCCN)C(=O)N[C@H](C(=O)N[C@@H](CC(C)C)C(=O)NCC(=O)N[C@@H](CCC(N)=O)C(=O)N[C@@H](CC(C)C)C(=O)N[C@@H](CO)C(=O)N[C@@H](C)C(=O)N[C@@H](CCCNC(=N)N)C(=O)N[C@@H](CCCCN)C(=O)N[C@@H](CC(C)C)C(=O)N[C@@H](CC(C)C)C(=O)N[C@@H](CCC(N)=O)C(=O)N[C@@H](CC(=O)O)C(=O)N[C@H](C(=O)N[C@@H](CCSC)C(=O)N[C@@H](CO)C(=O)N[C@@H](CCCNC(=N)N)C(=O)N[C@@H](CCC(N)=O)C(=O)N[C@@H](CCC(N)=O)C(=O)NCC(=O)N[C@@H](CCC(=O)O)C(=O)N[C@@H](CCCNC(=N)N)C(=O)N[C@@H](CC(N)=O)C(=O)N[C@@H](CCC(N)=O)C(=O)N[C@@H](CCC(=O)O)C(=O)N[C@@H](CCC(N)=O)C(=O)NCC(=O)N[C@@H](C)C(=O)N[C@@H](CCCNC(=N)N)C(=O)N[C@H](C(=O)N[C@@H](CCCNC(=N)N)C(=O)N[C@@H](CC(C)C)C(N)=O)C(C)C)[C@@H](C)CC)C(C)C)[C@@H](C)O [pGRF(1-44)-NH2]
intrinsic biological activity: full intrinsic biological activity | potency: close to the same potency
